Assay results published in patent US11318157B2, “6-6 bicyclic aromatic ring substituted nucleoside analogues for use as PRMT5 inhibitors” (Janssen Pharmaceutica NV, priority 2015, dated 2022).
Like-named read-outs stand apart in the source and are kept apart here.

What was measured:
PRMT5-MEP50 enzyme [1] = target: T1, PRMT5-MEP50 enzyme (Homo sapiens, UniProt O14744); assay: In vitro assay 1a: high throughput mass spectrometer assay of SAH formation, 10 nM enzyme, 60 min; assay type: biochemical; settings: averaged values, PRMT5-MEP50, 10 nM enzyme, read-out: pIC50 Assay 1a (converted)
T1 construct: One virus expresses full length human PRMT5 with Flag-tag at N-terminus; Flag (N); purchased Charles River (Argenta); host or cells: insect cells (Sf9), baculovirus co-infection
T1 sequence (O14744 whole entry): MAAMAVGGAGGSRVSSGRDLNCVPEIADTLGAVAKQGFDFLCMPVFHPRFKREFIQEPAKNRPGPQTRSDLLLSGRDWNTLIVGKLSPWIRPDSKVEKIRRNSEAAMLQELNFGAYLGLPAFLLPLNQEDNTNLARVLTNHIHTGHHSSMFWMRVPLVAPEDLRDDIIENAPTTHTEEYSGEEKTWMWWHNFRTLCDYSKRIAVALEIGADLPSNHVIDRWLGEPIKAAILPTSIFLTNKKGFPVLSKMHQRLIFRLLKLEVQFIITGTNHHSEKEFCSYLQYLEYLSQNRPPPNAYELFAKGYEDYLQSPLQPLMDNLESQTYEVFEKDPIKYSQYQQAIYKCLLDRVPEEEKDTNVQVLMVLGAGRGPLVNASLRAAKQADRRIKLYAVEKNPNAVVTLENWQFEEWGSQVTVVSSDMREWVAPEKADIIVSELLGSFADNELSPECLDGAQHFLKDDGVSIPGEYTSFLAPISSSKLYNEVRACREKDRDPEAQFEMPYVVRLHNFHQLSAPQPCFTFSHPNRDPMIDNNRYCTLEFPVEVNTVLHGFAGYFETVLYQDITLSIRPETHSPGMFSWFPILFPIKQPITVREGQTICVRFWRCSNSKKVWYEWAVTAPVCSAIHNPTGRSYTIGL
T1 sequence (Q9BQA1 whole entry partner): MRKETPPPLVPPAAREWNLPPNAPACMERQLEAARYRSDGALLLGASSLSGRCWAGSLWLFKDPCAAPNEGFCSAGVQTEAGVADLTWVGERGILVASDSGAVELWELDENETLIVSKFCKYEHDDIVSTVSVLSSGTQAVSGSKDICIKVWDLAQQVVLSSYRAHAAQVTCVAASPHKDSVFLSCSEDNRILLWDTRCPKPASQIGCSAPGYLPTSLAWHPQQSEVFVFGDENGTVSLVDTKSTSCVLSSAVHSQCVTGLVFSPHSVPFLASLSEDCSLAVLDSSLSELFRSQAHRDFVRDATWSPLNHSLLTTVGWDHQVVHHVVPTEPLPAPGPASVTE
Excerpt: (§1) Experimental Procedures In Vitro Assay (Assay 1a and 1b)
(§2) PRMT5-MEP50 enzyme was purchased from Charles River (Argenta). The enzyme complex was produced in insect cells (Sf9) infected simultaneously with two baculoviruses. One virus expresses full length human PRMT5 with Flag-tag at N-terminus, the second virus expresses full length MEP50 with His6-TEV cleavage at N-terminus. The protein was affinity purified using anti-Flag (M2) beads eluted with 3×FLAG peptide, followed by His-Select eluted with 0.5M imidazole. Eluted protein was then dialysed against tris-buffered saline (TBS) (pH 8.0) containing 20% glycerol and 3 mM dithiothreitol (DTT).
(§3) Full-length untagged human recombinant histone H2A (residues 1-130, Genbank Accession #NM_021052 MW=14.1 kDa) expressed in E. coli was purchased from Reaction Biology Corporation, Cat #HMT-11-146. Reagents used for making reaction buffer or stopping reaction were purchased including Tris base (Sigma Cat #T-1503), NaCl (Sigma Cat #RGF-3270), MgCl2 (Sigma Cat #M0250), DTTI (Invitrogen Cat #15508-013) and Formic Acid (Riedel deHaen, Cat #33015)
(§4) High Throughput Mass Spectrometer Assay
(§5) PRMT5 catalyzes the sequential methylations of the terminal nitrogen atoms on the guanidine groups of arginine residues within proteins using co-substrate S-adenosyl-L-methionine (AdoMet, SAM), forming mono-methyl (MMA), symmetric-dimethyl arginine (sDMA) and S-adenosyl-L-homocysteine (AdoHcy, SAH). The enzyme activity was determined by following the product SAH formation using high throughput mass spectrometry (Agilent Rapidfire 300 System coupled to a Sciex 4000 series QTrap® triple-quad MS/MS). The reaction buffer was 20 mM Tris-HCl, pH 8.5, 50 mM NaCl, 5 mM MgCl2 and 1 mM DTT. The reaction activity was stopped using 1% formic acid (final concentration).
(§6) The IC50 Studies were performed using eleven point dosing series made for each compound by serially diluted 1:2 in dimethyl sulfoxide (DMSO), with point 12 being a DMSO control. Compounds were first spotted to plates, and followed by addition of 2 μM SAM and 0.6 μM H2A (histone H2A) solution mixture. The same volume of enzyme solution was added to initiate the enzymatic reactions. The final concentrations of the reaction are at 1 μM SAM, 0.3 μM H2A and 10 nM enzyme (assay 1a) or 1.25 nM enzyme (assay 1b). The reaction was incubated at 30° C. for 60 minutes (min) when 10 nM enzyme was used and for 120 min when 1.25 nM enzyme was used. Subsequently, the reaction was quenched by addition of formic acid to a final concentration of 1%. The inhibitions of SAH formation in the presence of compounds were calculated as a percentage of the control relative to the uninhibited reaction as a function of inhibitor concentration. The data were fit as follows: Y=Bottom+(Top−Bottom)/(1+10^((log IC50−X)*h))
(§7) where IC50 is the inhibitor concentration (same unit as X) at 50% inhibition and h is the Hill slope. Y is percent of inhibition, X is log of compound concentration. Bottom and Top are the plateaus in same units as Y.

PRMT5-MEP50 enzyme [2] = target: T1, PRMT5-MEP50 enzyme; assay: In vitro assay 1b: high throughput mass spectrometer assay of SAH formation, 1.25 nM enzyme, 120 min; assay type: biochemical; settings: averaged values; PRMT5-MEP50, 1.25 nM enzyme, 120 min; read-out: pIC50 Assay 1b (converted)
Excerpt: as §1, §2, §3, §4, §5, §6, §7

[3] = tested on: nuclear symmetric Arginine dimethylation in A549 cells; assay: PD assay (assay 2): inhibition of nuclear symmetric Arginine dimethylation (SYM10 immunohistochemistry), 48 h; assay type: cell-based; settings: for IC50: Homo sapiens
Protocol: Experimental Procedure PD Assay (Assay 2)
A549 cells (ATCC, Cat #CCL-185) were cultured in Dulbecco's Modified Eagle's Medium (DMEM) (Sigma, Cat #D5796), supplemented with 10% Fetal Calf Serum (FCS) (HyClone™, Cat #SV30160.03), 100 mM Sodium Pyruvate (Sigma, Cat #S8636), 200 mM L-Glutamine (Sigma, Cat #G7513) and 50 mg/mL gentamycin (Gibco, Cat #15750-037).
Reagents used for buffers were purchased: Dulbecco's phosphate buffered saline (DPBS) without Ca/Mg (Sigma, Cat #D8537), phosphate buffered saline (PBS) 10× (Roche, Cat #11 666 789 001), Formalin solution 10% (Sigma, HT50-1-128-4L), Methanol 100% (Sigma, Cat #32213-2.5L), Triton X-100 (Acros, Cat #215680010), Bovine Serum Albumin (BSA) (Sigma, Cat #A2153), Alexa fluor 488 goat anti-rabbit antibody (Life Technologies, Cat #A11034), HCS CellMask Deep Red Stain (Life Technologies, Cat #H32721), Hoechst Stain (Life Technologies, Cat #33258), Anti-dimethyl-Arginine, sym (SYM10) antibody (Millipore, 07-412).
Immunohistochemistry Procedure
Cells were plated at 400 cells/40 μL/well in 384 well black μplates clear bottom (Perkin Elmer) and overnight incubated at 37° C., 5% CO2. […] 80 nL of the respective dilution of the compounds was added using the Labcyte POD 810 (Labcyte) reaching a final DMSO concentration of 0.2% in cell culture. After an incubation period of 48 h at 37° C. and 5% CO2, cells were fixed in 10% formalin solution for 15 min at room temperature and 20 min in ice-cold methanol, after which they were washed 3× in DPBS. Subsequently, the cells were blocked for 1 h in blocking buffer (PBS+1% BSA and 0.5% Triton X-100) and incubated overnight at 4° C. with the SYM10 antibody diluted 1/2000 in blocking buffer. The cells were washed 3× with washing buffer (PBS+0.1% Triton X-100) and incubated with the Alexa fluor 488 goat anti-rabbit antibody diluted 1/200 in blocking buffer for 1 h at room temperature. Subsequently, they were washed 3× with washing buffer and incubated for 30 min at room temperature with PBS containing a 1/5000 dilution of Hoechst Stain and a 1/5000 dilution of the HCS CellMask Deep Red Stain. After a final wash with PBS, the plates were imaged using the 10×W lens of the Opera® system (Perkin Elmer Life Sciences) using following settings (values in nm):
In the above equations, the following variable names are used: […]
In the above equations, the following controls were used for normalization: […]
Low control: minimum level of symmetrically dimethylated Arginines (cells treated with reference compound at 10 μM).
High control: maximum level of symmetrically dimethylated Arginines (DMSO treated cells).
IC50 and pIC50 (−log IC50) values were calculated using the appropriate software.
The pIC50 values in the Table below are averaged values (Co. No. means compound number; n.d. means not determined).

[4] = A549, averaged values, PD assay, A549 cells, symmetric Arginine dimethylation, read-out: pIC50 Assay 2 (converted)

| IC50 (PRMT5-MEP50 enzyme [1]) [µM] | IC50 (PRMT5-MEP50 enzyme [2]) [µM] | IC50 [3, 4] [µM] | pIC50 Assay 2 ([3]; averaged values, PD assay, A549 cells, symmetric Arginine dimethylation) | SMILES | IC50 ([3]; A549, read-out: pIC50 Assay 2 (converted)) [µM] |
| --- | --- | --- | --- | --- | --- |
| 0.251 | 1.26 | 5.01 |  | Nc1ncnc2c1ccn2[C@@H]1O[C@H](COc2ccc3cncnc3c2)[C@@H](O)[C@H]1O [Compound 16] |  |
| 0.126 | 0.501 | 0.398 |  | Nc1ncnc2c1ccn2[C@@H]1O[C@H](COc2cc3ncccc3cc2Cl)[C@@H](O)[C@H]1O [Compound 91] |  |
| 0.0631 |  | 0.794 |  | Nc1ncnc2c1ccn2[C@@H]1O[C@H](COc2cc3ncc(Br)cc3cc2Cl)[C@@H](O)[C@H]1O [Compound 92] |  |
| 2.51 |  | 2 |  | Cc1c(OC[C@H]2O[C@@H](n3ccc4c(N)ncnc43)[C@H](O)[C@@H]2O)ccc2cccnc12 [Compound 39] |  |
| 2 |  | 6.31 |  | Nc1ncnc2c1ccn2[C@@H]1O[C@H](COc2ccc3ccc(Cl)nc3c2)[C@@H](O)[C@H]1O [Compound 20] |  |
| 3.16 |  | > 20 |  | Nc1ncnc2c1ccn2[C@@H]1O[C@H](COc2ccc3ccccc3c2)[C@@H](O)[C@H]1O [Compound 9] |  |
| 1.26 |  | > 20 |  | Nc1ncnc2c1ccn2[C@@H]1O[C@H](COc2cnc3cccnc3c2)[C@@H](O)[C@H]1O [Compound 14] |  |
| 1.26 |  | ~17.4 |  | Nc1ncnc2c1ccn2[C@@H]1O[C@H](COc2cccc3ccncc23)[C@@H](O)[C@H]1O [Compound 7] |  |
| 0.251 |  | 0.631 |  | Nc1ncnc2c1c(Br)cn2[C@@H]1O[C@H](COc2ccc3cccnc3c2)[C@@H](O)[C@H]1O [Compound 45] |  |
| 7.94 |  | > 20 |  | COc1cc2c(Cl)ccnc2cc1OC[C@H]1O[C@@H](n2ccc3c(N)ncnc32)[C@H](O)[C@@H]1O [Compound 36] |  |
| 1 |  | > 3.98 |  | Nc1ncnc2c1ccn2[C@@H]1O[C@H](COc2ccc3nccnc3c2)[C@@H](O)[C@H]1O [Compound 15] |  |
| 0.1 |  | 0.398 |  | Nc1ncnc2c1ccn2[C@@H]1O[C@H](CSc2ccc3cccnc3c2)[C@@H](O)[C@H]1O [Compound 48] |  |
| 0.02 |  |  |  | C=Cc1cnc2cc(OC[C@H]3O[C@@H](n4ccc5c(N)ncnc54)[C@H](O)[C@@H]3O)ccc2c1 [Compound 253] |  |
| 3.16 |  | > 20 |  | CNC(=O)c1ccc2ccc(OC[C@H]3O[C@@H](n4ccc5c(N)ncnc54)[C@H](O)[C@@H]3O)cc2n1 [Compound 246] |  |
| 1 |  | ~1 |  | Nc1ncnc2c1ccn2[C@@H]1O[C@H](COc2ccc3cc(Br)cnc3c2Cl)[C@@H](O)[C@H]1O [Compound 94] |  |

Second part, the compound before the results:

| SMILES | IC50 (PRMT5-MEP50 enzyme [1]) [µM] | IC50 (PRMT5-MEP50 enzyme [2]) [µM] | IC50 [3, 4] [µM] | pIC50 Assay 2 ([3]; averaged values, PD assay, A549 cells, symmetric Arginine dimethylation) | IC50 ([3]; A549, read-out: pIC50 Assay 2 (converted)) [µM] |
| --- | --- | --- | --- | --- | --- |
| Nc1cnc2ccc(CC[C@H]3C[C@@H](n4ccc5c(Cl)ncnc54)[C@H](O)[C@@H]3O)cc2n1 [Compound 143] | 0.01 | 0.0501 | 2.51 |  |  |
| Nc1ncnc2c1ccn2[C@@H]1C[C@H](OCc2ccc3ncccc3c2)[C@@H](O)[C@H]1O [Compound 65] | 3.16 | 1 | 15.8 |  |  |
| CC(Oc1ccc2cccnc2c1)[C@H]1O[C@@H](n2ccc3c(N)ncnc32)[C@H](O)[C@@H]1O (single isomer, unassigned) [Compound 67] | 0.1 |  |  | 6.5 |  |
| Nc1ncnc2c1ccn2[C@@H]1C[C@H](/C=C/c2ccc3cc(Cl)cnc3c2)[C@@H](O)[C@H]1O [Compound 57] | 0.0316 |  | ~0.151 |  |  |
| Nc1ccc2ccc(CC[C@H]3C[C@@H](n4ccc5cncnc54)[C@H](O)[C@@H]3O)cc2n1 [Compound 77] | 0.000501 |  | < 0.00117 |  |  |
| CNc1ncnc2c1ccn2[C@@H]1C[C@H](CCc2ccc3ccc(N)nc3c2)[C@@H](O)[C@H]1O [Compound 78] | 0.00126 |  |  |  | 0.000316 |
| Nc1nc2cc(CC[C@H]3C[C@@H](n4ccc5cccnc54)[C@H](O)[C@@H]3O)ccc2cc1Cl [Compound 249] |  | 0.02 | 0.501 |  |  |
| CNc1ncnc2c1ccn2[C@@H]1C[C@H](COc2ccc3cc(Br)c(N)nc3c2)[C@@H](O)[C@H]1O [Compound 237] |  | 0.00158 | 0.00631 |  |  |
| COc1ncnc2c1ccn2[C@@H]1C[C@H](CCc2ccc3ccc(N)nc3c2)[C@@H](O)[C@H]1O [Compound 79] | 0.000398 |  | < 0.00117 |  |  |
| CNc1ncnc2c1ccn2[C@@H]1C[C@H](CCc2ccc3ccc(NCC4CC4)nc3c2)[C@@H](O)[C@H]1O [Compound 209] |  | 0.000316 | 0.0158 |  |  |
| CNc1nc2cc(CC[C@H]3C[C@@H](n4ccc5c(NC)ncnc54)[C@H](O)[C@@H]3O)ccc2cc1F [Compound 203] |  | > 2.51 | 6.31 |  |  |
| Nc1nc2cc(CC[C@H]3C[C@@H](n4ccc5c(N)ncnc54)[C@H](O)[C@@H]3O)ccc2cc1Cl [Compound 81] | 0.000251 |  | 0.0002 |  |  |
| Nc1nc2cc(CC[C@H]3C[C@@H](n4ccc5cnc(Cl)nc54)[C@H](O)[C@@H]3O)ccc2cc1Cl [Compound 241] |  | 0.00251 | < 0.00117 |  |  |
| CNc1ncnc2c1ccn2[C@@H]1O[C@H](CCc2ccc3cc(Br)c(N)nc3c2)[C@@H](O)[C@H]1O [Compound 239] |  | 0.01 | 0.0251 |  |  |
| Nc1nc2cc(CC[C@H]3C[C@@H](n4ccc5c(N)ncnc54)[C@H](O)[C@@H]3O)ccc2cc1F [Compound 159] |  | 0.000126 | < 0.00117 |  |  |
| CNc1ccc2ccc(CC[C@H]3C[C@@H](n4ccc5c(NC)ncnc54)[C@H](O)[C@@H]3O)cc2n1 [Compound 178] |  | 0.000794 | 0.01 |  |  |
